# Experimental data reported in patent US12128105B2, “Molecular degraders of extracellular proteins” (priority 2021, dated 2024).
# Experiments:
# α-DNP antibody [1] = assay: In vivo serum levels of α-DNP antibody in mice (ELISA); settings: FIG. 8D, single variable dose
# Procedure: In vivo experiments were performed under Yale University IACUC supervision following protocol entitled “pre-clinical evaluation of small molecule immunomodulators” (Protocol number 2017-11445). Experiments were performed in male nude mice purchased from Jackson Laboratory (NU/J, Stock No. 002019). Compounds were administered i.p. in a volume of 100 μL PBS. Approximately 25 μL of blood was collected at each time point by saphenous bleed. Antibody was administered as 40 μg in 100 μL i.p. Compounds were administered daily at the specified dose throughout the course of experiments. For data analysis, antibody levels were normalized to the recorded concentration of antibody observed in each mouse 24 hours after the i.p. administration.
# ELISA analysis of serum samples was performed using MaxiSorp 96 well plates (Thermo, 44-2404-21). Plates were coated with 50 μL of BSA-DNP (Invitrogen, A23018) at 100 ug/mL in PBS and incubated at 4° C. overnight. Coating solution was then removed, and the plates were blocked with 2% BSA in PBS for 2 hours at room temperature, followed by washing twice with PBST (0.2% Tween). Serum samples were diluted in 2% BSA in PBS. […] The plates were then treated with TMB (Thermo 34028) followed by 2 M H2SO4 and analyzed for OD at 450 nm on a plate reader (BioTek Synergy 2). Sample concentrations were determined against a standard curve.
# α-DNP antibody [2] = assay: Endocytosis of α-DNP antibody in hepatocytes; type: cell-based; settings: FIG. 6C; 12 hour time point
# [3] = system: α-DNP antibody / ASGPR on hepatocytes; assay: Ternary complex formation between hepatocytes and α-DNP antibody; type: cell-based
# α-DNP antibody [4] = assay: Colocalization microscopy studies (Alexa 488 signal, EEA1/LAMP2); type: cell-based; settings: FIG. 7A
# Procedure: Cells were grown in 8-well microscope cell culture containers (Thermo, 177402) treated with polylysine (Fisher Scientific, 343810001). For all experiments, D-MoDE-A was used at a final concentration of 40 nM, and antibody was used at a final concentration of 100 nM. At 12 hours, cell culture media was removed and cells were washed with PBS once before fixation with 3.5% formaldehyde PBS solution for 13 minutes. Cells were then washed with PBS, and permeabilized for 5 minutes with 0.5% triton X-100 in PBS. Cells were blocked with 0.2% tween in TBS (Tween 20, AmericanBio, Ref AB02038-00500) and 3% BSA (Sigma, A9418) for one hour at room temperature. […] After incubation for 1 hour in a humidified chamber protected from light, cells were washed 3× with PBST for 5 minutes each. Cells were then treated with Alexa Fluor 568-labeled secondary antibody (Abcam, ab175473) at 1:500 dilution. Cells were washed 3× with PBST for 5 minutes each, then treated with PBS containing Hoechst stain (final concentration 1 μg/mL), incubated at room temperature for at least 10 minutes, and imaged. Cells were visualized using a Zeiss Axio Observer Z1 inverted microscope using 63× magnification under oil. Image analysis was performed on ZEN2 (blue edition) version 2.0.0.0.
smiles,measurement,setting,value
CC(=O)N[C@H]1[C@H](OCCOCCOCCNC(=O)CCOCC(COCCC(=O)NCCOCCOCCO[C@@H]2O[C@H](CO)[C@H](O)[C@H](O)[C@H]2NC(C)=O)(COCCC(=O)NCCOCCOCCO[C@@H]2O[C@H](CO)[C@H](O)[C@H](O)[C@H]2NC(C)=O)NC(=O)CNC(=O)COCCOCCOCCNc2ccc([N+](=O)[O-])cc2[N+](=O)[O-])O[C@H](CO)[C@H](O)[C@@H]1O [D-MoDE-A],serum levels of α-DNP antibody,α-DNP antibody [1],decrease in serum levels of α-DNP antibody
same,endocytosis of α-DNP antibody in hepatocytes,α-DNP antibody [2],dependent on both α-DNP antibody and DMoDE-A concentration
same,formation of a ternary complex between hepatocytes and α-DNP antibody,[3]; FIG. 6A,dependent on the concentration of D-MoDE-A
same,ternary complex formation in presence of competitive binders of ASGPR or α-DNP antibody,[3]; FIG. 6B,inhibited by competitive binders of either ASGPR or α-DNP antibody
same,Alexa 488 signal in colocalization studies,α-DNP antibody [4],dependent on the presence of α-DNP antibody and D-MoDE-A
